Test results taken from ChEMBL document CHEMBL2384949, “Nitroimidazolyl hydrazones are better amoebicides than their cyclized 1,3,4-oxadiazoline analogues: In vitro studies and Lipophilic efficiency analysis” (Eur J Med Chem, 2013).

Tests used:
[1] = test system: Entamoeba histolytica; experiment: Antiamoebic activity against Entamoeba histolytica HM-1:IMSS trophozoites after 72 hrs by microdilution method; assay type: functional, organism-based
[2] = Cytotoxicity against human HepG2 cells assessed as cell viability up to 25 uM after 48 hrs by MTT assay; assay type: cell-based; settings: read-out: Activity
[3] = Cytotoxicity against human HepG2 cells assessed as cell viability at 100 uM after 48 hrs by MTT assay; assay type: cell-based; settings: read-out: Activity
[4] = test system: HepG2; experiment: Cytotoxicity against human HepG2 cells after 48 hrs by MTT assay; assay type: cell-based; settings: for IC50: Homo sapiens, HepG2, 48 h; for Activity: human, hepg2, 48 h
[5] = test system: HepG2; experiment: Cytotoxicity against human HepG2 cells assessed as cell viability at 50 to 100 uM after 48 hrs by MTT assay; assay type: cell-based; settings: hepg2, 48 h
[6] = Cytotoxicity against human HepG2 cells assessed as cell viability at 3.13 uM after 48 hrs by MTT assay; assay type: cell-based; settings: read-out: Activity
[7] = Safety index, ratio of IC50 for human HepG2 cells to IC50 for Entamoeba histolytica HM-1:IMSS trophozoites

Structure (SMILES)	IC50 ([1]; read-out: IC50) [µM]	IC50 ([1]; read-out: pIC50 (converted)) [µM]	further results
Cc1ncc([N+](=O)[O-])n1CC(=O)N/N=C/c1ccc(C(C)C)cc1	3.68	3.68	
COc1ccc(/C=N/NC(=O)Cn2c([N+](=O)[O-])cnc2C)cc1	0.81	0.811	viability at 48 h [2]: ≥ 88%; viability at 48 h, 100 µM [3]: ≥ 68%; IC50 [4]: > 100 µM; Activity [4]: Dose-dependent effect; Activity [5]: Non-toxic; viability at 48 h, 3.13 µM [6]: 98%; selectivity ratio ([7]; HepG2 cells): > 123
Cc1ccc(/C=N/NC(=O)Cn2c([N+](=O)[O-])cnc2C)cc1	0.96	0.962	viability at 48 h [2]: ≥ 88%; viability at 48 h, 100 µM [3]: ≥ 68%; IC50 [4]: > 100 µM; Activity [4]: Dose-dependent effect; Activity [5]: Non-toxic; viability at 48 h, 3.13 µM [6]: 98%; selectivity ratio ([7]; HepG2 cells): > 104
Cc1ncc([N+](=O)[O-])n1CC(=O)N/N=C/c1cccc(Cl)c1	3.82	3.83	
Cc1ncc([N+](=O)[O-])n1CC(=O)N/N=C/c1ccccc1Cl	3.86	3.86	
Cc1ncc([N+](=O)[O-])n1CC(=O)N/N=C/c1ccc(Cl)cc1	3.64	3.65	
COc1cc(C2OC(Cn3c([N+](=O)[O-])cnc3C)=NN2C(C)=O)cc(OC)c1OC (stereo not drawn)	5.82	5.82	
CCc1ccc(/C=N/NC(=O)Cn2c([N+](=O)[O-])cnc2C)cc1	1.32	1.32	viability at 48 h [2]: ≥ 88%; viability at 48 h, 100 µM [3]: ≥ 68%; IC50 [4]: > 100 µM; Activity [4]: Dose-dependent effect; Activity [5]: Non-toxic; viability at 48 h, 3.13 µM [6]: 98%; selectivity ratio ([7]; HepG2 cells): > 75.8
Cc1ccc(C)c(/C=N/NC(=O)Cn2c([N+](=O)[O-])cnc2C)c1	2.58	2.58	
CCOc1ccc(/C=N/NC(=O)Cn2c([N+](=O)[O-])cnc2C)cc1	1.65	1.65	viability at 48 h [2]: ≥ 88%; viability at 48 h, 100 µM [3]: ≥ 68%; IC50 [4]: > 100 µM; Activity [4]: Dose-dependent effect; Activity [5]: Non-toxic; viability at 48 h, 3.13 µM [6]: 98%; selectivity ratio ([7]; HepG2 cells): > 60.6
COc1ccc(OC)c(/C=N/NC(=O)Cn2c([N+](=O)[O-])cnc2C)c1	2.64	2.64	
COc1cc(/C=N/NC(=O)Cn2c([N+](=O)[O-])cnc2C)cc(OC)c1OC	4.12	4.12	
CC(=O)N1N=C(Cn2c([N+](=O)[O-])cnc2C)OC1c1ccccc1 (stereo not drawn)	9.82	9.84	
CC(=O)N1N=C(Cn2c([N+](=O)[O-])cnc2C)OC1c1ccccc1Cl (stereo not drawn)	6.84	6.85	
CC(=O)N1N=C(Cn2c([N+](=O)[O-])cnc2C)OC1c1cccc(Cl)c1 (stereo not drawn)	6.32	6.32	
CC(=O)N1N=C(Cn2c([N+](=O)[O-])cnc2C)OC1c1ccc(Cl)cc1 (stereo not drawn)	5.4	5.41	
CC(=O)N1N=C(Cn2c([N+](=O)[O-])cnc2C)OC1c1ccc(C)cc1 (stereo not drawn)	2.48	2.48	
CCc1ccc(C2OC(Cn3c([N+](=O)[O-])cnc3C)=NN2C(C)=O)cc1 (stereo not drawn)	2.62	2.62	
CC(=O)N1N=C(Cn2c([N+](=O)[O-])cnc2C)OC1c1cc(C)ccc1C (stereo not drawn)	4.38	4.39	
CC(=O)N1N=C(Cn2c([N+](=O)[O-])cnc2C)OC1c1ccc(C(C)C)cc1 (stereo not drawn)	4.88	4.89	
COc1ccc(C2OC(Cn3c([N+](=O)[O-])cnc3C)=NN2C(C)=O)cc1 (stereo not drawn)	2.18	2.18	
CCOc1ccc(C2OC(Cn3c([N+](=O)[O-])cnc3C)=NN2C(C)=O)cc1 (stereo not drawn)	2.32	2.32	
COc1ccc(OC)c(C2OC(Cn3c([N+](=O)[O-])cnc3C)=NN2C(C)=O)c1 (stereo not drawn)	4.62	4.62	
Cc1ncc([N+](=O)[O-])n1CC(=O)N/N=C/c1ccccc1	4.28	4.29	
Cc1ncc([N+](=O)[O-])n1CCO [METRONIDAZOLE]			viability at 48 h [2]: ≥ 88%; viability at 48 h, 100 µM [3]: ≥ 68%; IC50 [4]: > 100 µM; Activity [4]: Dose-dependent effect; Activity [5]: Non-toxic; viability at 48 h, 3.13 µM [6]: 98%; selectivity ratio ([7]; hepg2): > 55.5
